Measured values published in patent US11952369B2 (Kadmon Corporation, LLC, priority 2022, dated 2024).
Where two headings read alike, the source gives them in different places.

Experiments:
[1] = Solubility; type: physicochemical; details: in vitro assessments
[2] = Phase 1 study part 2: metabolite identification and profiling in plasma, urine and feces; type: in vivo, human; details: mean across subjects
Procedure: To determine the most appropriate sampling pools for metabolite identification/profiling, plasma, urine, and fecal samples were pooled based on mass balance data obtained as described above. Plasma samples were pooled for individual subjects by time points that represented at least 80% of the plasma total radioactivity, as well as pooled across subjects before dosing and at 4-hour and 8-hour time points. Urine samples were pooled from 0 to 24 hours for individual subjects and across subjects for predose and 0- to 6-hour intervals. Fecal samples were pooled for individual subjects depending on time points that represented at least 80% of the […] total radioactivity and across subjects at 0- to 24- and 24- to 48-hour intervals.
[^14C]-belumosudil concentrations were quantified by LC-MS/MS. Chemical structures were then identified for those radioactive components that accounted for >10% of circulating radioactivity in plasma and >10% of the dose in urine and feces. Radioactive components that represented <10% of circulating radioactivity in plasma and <10% of the dose in urine and feces were also identified. Metabolite identification was then performed using accurate mass positive and negative ion full scan and positive ion product ion analyses. […] Any identified components were compared with [^14C] radiochromatograms to identify the metabolite. Predose plasma and urine pools were used to correct for endogenous components during metabolite identification.

[3] = Phase 1 study: safety assessments; type: in vivo, human
Procedure: Safety was assessed throughout the study by AEs, vital signs, electrocardiograms, physical examinations, and clinical laboratory tests. The safety population included all subjects who received at least 1 dose of the study drug (oral or IV) in either part of the study.

[4] = Phase 1 study part 1: absolute bioavailability, oral 200-mg tablet plus [14C]-belumosudil IV microtracer, plasma PK; type: in vivo, human; details: for F, AUCinf (absolute bioavailability, AUCinf,oral/AUCinf,IV): dose-adjusted
Procedure: This was a single-center, nonrandomized, open-label, 2-part study in 5 healthy male subjects aged 30 to 65 years. All oral doses were administered following an overnight fast and a standard breakfast on the day of dosing.
(timed to occur at the expected maximum concentration [Cmax]). To determine absolute bioavailability, a microtracer dose was chosen as it negates the need for an IV formulation with good stability. Additionally, due to use of a very low dose, further nonclinical studies such as local tolerance and general toxicology studies were not warranted.
Blood samples for IV [^14C]-belumosudil PK analysis and total radioactivity were collected at −0.25, −0.16, −0.08, 0, 0.08, 0.16, 0.25, 0.5, 0.75, 1, 1.5, 2, 3, 4, 5, 6, 8, 10, 12, 22, 34, and 46 hours after the end of infusion (EOI). All samples were processed to plasma within 30 minutes of collection by centrifugation at 2000 g for 10 minutes at 4° C., and
Total [^14C]-belumosudil concentrations were determined by accelerator mass spectrometry (AMS). […] Selected samples were diluted with commercial plasma to ensure that concentrations would fall within the acceptable range for AMS analysis. The samples were converted to graphite through combustion to CO2 followed by reduction to graphite. The graphite targets were then analyzed by AMS (LLOQ of 0.00489, 0.00557, 0.00485, 0.00402, and 0.00372 ng equiv/mL for individual subjects). All ^14C data was background-corrected based on predose [^14C]-belumosudil concentrations.
Eluate fractions corresponding to [^14C]-belumosudil were collected before AMS analysis (LLOQ of 1.55 pg equiv/mL).
PK parameter estimates were used to calculate absolute bioavailability and metabolite-to-parent ratio.

[5] = target: T1, ROCK2 (Rattus norvegicus, UniProt Q62868); test: Inhibition of ROCK2 enzymatic activity, immunoabsorbed full length enzyme, S6 kinase substrate peptide, [γ33P]ATP; type: biochemical; details: for Ki: ROCK2
T1 construct: Full length rat ROCK1 and ROCK2 proteins were isolated from various tumor cell lines or tissues by immunoabsorption; endogenous in cells
T1 sequence (Q62868 whole entry): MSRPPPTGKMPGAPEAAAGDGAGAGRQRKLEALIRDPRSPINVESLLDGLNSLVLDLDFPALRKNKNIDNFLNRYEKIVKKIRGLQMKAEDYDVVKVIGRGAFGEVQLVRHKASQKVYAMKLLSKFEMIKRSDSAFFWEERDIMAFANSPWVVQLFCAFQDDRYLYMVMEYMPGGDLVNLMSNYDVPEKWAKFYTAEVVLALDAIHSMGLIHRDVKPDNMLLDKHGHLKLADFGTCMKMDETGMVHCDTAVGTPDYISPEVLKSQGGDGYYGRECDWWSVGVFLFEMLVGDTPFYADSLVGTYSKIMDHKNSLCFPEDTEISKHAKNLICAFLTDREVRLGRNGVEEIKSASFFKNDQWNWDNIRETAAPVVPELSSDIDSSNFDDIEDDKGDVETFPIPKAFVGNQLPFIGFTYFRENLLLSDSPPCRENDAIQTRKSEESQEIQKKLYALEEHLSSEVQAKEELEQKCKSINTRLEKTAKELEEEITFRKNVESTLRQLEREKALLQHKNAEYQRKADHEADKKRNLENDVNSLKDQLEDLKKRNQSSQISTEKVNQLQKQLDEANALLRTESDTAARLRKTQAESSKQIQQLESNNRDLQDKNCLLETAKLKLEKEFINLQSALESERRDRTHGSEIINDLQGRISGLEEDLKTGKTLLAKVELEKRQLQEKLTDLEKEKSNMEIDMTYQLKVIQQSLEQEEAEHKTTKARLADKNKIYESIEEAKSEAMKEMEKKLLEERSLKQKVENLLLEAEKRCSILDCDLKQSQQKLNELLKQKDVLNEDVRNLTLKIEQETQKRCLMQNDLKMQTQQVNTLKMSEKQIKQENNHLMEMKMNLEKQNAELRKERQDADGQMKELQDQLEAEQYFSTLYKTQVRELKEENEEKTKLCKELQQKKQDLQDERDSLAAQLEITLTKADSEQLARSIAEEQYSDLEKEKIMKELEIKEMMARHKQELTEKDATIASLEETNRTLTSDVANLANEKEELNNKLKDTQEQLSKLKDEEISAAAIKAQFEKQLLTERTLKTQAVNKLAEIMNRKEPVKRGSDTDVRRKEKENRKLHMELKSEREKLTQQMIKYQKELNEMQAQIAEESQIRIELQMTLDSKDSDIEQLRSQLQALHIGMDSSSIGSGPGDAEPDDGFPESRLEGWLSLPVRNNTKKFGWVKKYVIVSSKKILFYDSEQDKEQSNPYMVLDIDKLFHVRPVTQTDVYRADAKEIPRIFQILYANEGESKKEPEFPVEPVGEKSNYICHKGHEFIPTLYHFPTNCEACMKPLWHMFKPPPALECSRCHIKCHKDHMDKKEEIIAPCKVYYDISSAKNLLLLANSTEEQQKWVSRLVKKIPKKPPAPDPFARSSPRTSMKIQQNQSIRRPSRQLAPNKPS
Procedure: Full length rat ROCK1 and ROCK2 proteins were isolated from various tumor cell lines or tissues by immunoabsorption to 24-well microtiter plates pre-coated with antibodies specific for each isozyme. Reactions were initiated by the addition of S6 kinase substrate peptide, [γ33P]ATP, and study drug, and incubated at 37° C. for 20 minutes. Reactions were terminated by addition of phosphoric acid and the radioactivity was quantified using standard methods.

[6] = target: cytochrome P450 CYP3A4 (Homo sapiens, UniProt P08684); test: In vitro assessments of belumosudil metabolism; type: in vitro ADME
Chain of cytochrome P450 CYP3A4 (P08684 whole entry): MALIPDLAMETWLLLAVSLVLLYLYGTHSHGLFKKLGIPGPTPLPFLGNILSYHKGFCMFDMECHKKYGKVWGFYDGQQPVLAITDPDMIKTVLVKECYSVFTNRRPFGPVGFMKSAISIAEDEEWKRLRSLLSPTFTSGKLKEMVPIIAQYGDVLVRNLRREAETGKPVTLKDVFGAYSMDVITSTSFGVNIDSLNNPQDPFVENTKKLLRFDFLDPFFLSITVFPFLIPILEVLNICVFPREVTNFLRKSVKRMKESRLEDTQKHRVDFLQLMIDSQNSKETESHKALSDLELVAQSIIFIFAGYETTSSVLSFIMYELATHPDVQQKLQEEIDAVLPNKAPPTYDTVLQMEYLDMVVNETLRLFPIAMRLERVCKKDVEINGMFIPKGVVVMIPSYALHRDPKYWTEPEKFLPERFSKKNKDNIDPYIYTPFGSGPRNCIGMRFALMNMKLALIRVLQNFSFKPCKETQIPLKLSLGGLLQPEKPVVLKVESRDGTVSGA

[7] = Metabolite exposure quantified in clinical trials of the belumosudil development program; type: in vivo, human; details: clinical trials across the belumosudil development program
[8] = arithmetic mean (standard deviation), Part 1, belumosudil after oral 200-mg tablet
[9] = arithmetic mean (standard deviation), Part 1, oral 200-mg tablet vs IV microtracer
[10] = geometric mean (geometric CV %), Part 1, belumosudil after oral 200-mg tablet
[11] = geometric mean (geometric CV %), Part 1, oral 200-mg tablet vs IV microtracer

## CC(C)NC(=O)COc1cccc(-c2nc(Nc3ccc4[nH]ncc4c3)c3ccccc3n2)c1 [Belumosudil, 2-{3-[4-(1H-indazol-5-ylamino)-2-quinazolinyl]phenoxy}-N-(propan-2-yl) acetamide]
[1]
  pH dependence of solubility: pH dependent
[2]
  % ROI, feces (mean % contribution to total sample radioactivity): (29.60) %
  % ROI, plasma (mean % contribution to total plasma radioactivity): P6 (64.17) %
[2]; listed as belumosudil
  % ROI, feces (mean % contribution to total sample radioactivity): 30%
  % ROI, plasma (mean % contribution to total plasma radioactivity): 64%
[3]; either part of the study
  laboratory, vital sign, electrocardiogram, physical examination findings: No clinically significant laboratory, vital sign, electrocardiogram, or physical examination findings
[3]; healthy male subjects, both parts of the study
  deaths, serious AEs, severe AEs, AEs leading to withdrawal: no deaths, serious AEs, AEs of severe intensity, or AEs leading to subject withdrawal
[3]; part 1, 200-mg tablet followed by [14C]-belumosudil microtracer infusion, one event, resolved spontaneously 2.5 hours after onset
  treatment-emergent AE: mild, possibly related rash
[3]; part 2, 200-mg [14C]-belumosudil capsule
  treatment-emergent AEs: no treatment-emergent AEs were reported
[4]; Part 1, oral 200-mg tablet
  time at which peak belumosudil concentrations were reached after the oral dose: 3 h
[4]; [8]
  AUCextrap: 2.18 (0.919) %
  AUCinf: 8890 (4240) ng or ng equiv × h/mL
  AUClast: 8730 (4270) ng or ng equiv × h/mL
  Clearanance (apparent clearance): 423 (126) mL/min
  Cmax: 1960 (649) ng or ng equiv/mL
[4]; [9]
  F, AUCinf (absolute bioavailability): 64.5 (10.4) %
  F, Cmax (bioavailability): 23.8 (2.21) %
[4]; [10]
  AUCextrap: 1.95 (64.6); %
  AUCinf: 8300 (40.2); ng or ng equiv × h/mL
  AUClast: 8120 (41.2); ng or ng equiv × h/mL
  Clearanance (apparent clearance): 402 (40.2); mL/min
  Cmax: 1870 (36.7); ng or ng equiv/mL
[4]; [11]
  F, Cmax (bioavailability): 23.7(9.3); %
  F, AUCinf (absolute bioavailability, AUCinf,oral/AUCinf,IV): 63.7 (17.3); %
[4]; geometric mean (geometric CV %), Part 1, oral 200-mg tablet vs IV microtracer, listed as belumosudil
  F, AUCinf (absolute bioavailability, AUCinf,oral/AUCinf,IV): 63.7%
[4]; male, human, plasma, other: intravenous and oral, IV and oral dosing comparable, read-out: half-life values following IV and oral dosing
  half-life: 5 to 6 h
[4]; male, human, plasma, po, 200 mg
  Tmax: 2 h
[4]; male, human, plasma, po, 200 mg, arithmetic mean (standard deviation), Part 1, belumosudil after oral 200-mg tablet, read-out: T1/2 (converted)
  half-life: 6.05 h
[4]; male, human, plasma, po, 200 mg, geometric mean (geometric CV %), Part 1, belumosudil after oral 200-mg tablet, read-out: T1/2 (terminal half-life) (converted)
  half-life: 5.3 h
[5]
  Ki: 40 ± 5 nM
[6]
  enzyme dependence of metabolism: primarily dependent on cytochrome P450 CYP3A4 activity

## NC(=O)COc1cccc(-c2nc(Nc3ccc4[nH]ncc4c3)c3ccccc3n2)c1 [KD025m1, 2-(3-(4-(1H-indazol-5-ylamino)quinazolin-2-yl)phenoxy)acetamide]
[7]
  exposure relative to the parent: < 5%
[5]
  Ki: 55 ± 2 nM
[5]; fold lower inhibition than belumosudil
  inhibition of ROCK2 (Ki) relative to belumosudil: comparable
